According to PubChem BioAssay AID504501 (Sanford-Burnham Center for Chemical Genomics, 2011):

Target: Sentrin-specific protease 8 (Homo sapiens) (UniProt Q96LD8)
Assay: SENP8 protease inhibitors, SAR follow-up, biochemical, luminescence (AID 504501)
Conditions: recombinant SENP8 enzyme, luminescent protease assay

Sentrin-specific protease 8 (Homo sapiens), sequence (Q96LD8 whole entry, looked up): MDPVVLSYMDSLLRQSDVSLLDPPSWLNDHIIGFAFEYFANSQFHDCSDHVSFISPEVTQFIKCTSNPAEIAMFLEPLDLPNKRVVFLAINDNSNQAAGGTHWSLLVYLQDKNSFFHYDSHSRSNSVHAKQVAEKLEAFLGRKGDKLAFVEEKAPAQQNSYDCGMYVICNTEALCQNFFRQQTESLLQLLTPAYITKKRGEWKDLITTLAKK

Molecule Fc1ccc(COc2ccc(C(=S)N3CCCC3)cc2)cc1 has an IC50 of 2.5 µM.
In the case of Cc1cccc(C(=O)Nc2scc(-c3ccc(Br)cc3)c2C(=O)O)c1, the IC50 is reported as 3.75 µM.
